From ChEMBL document CHEMBL5058642, “Data for DCP probe TP-051” (2022)

Key:
[1] = biological target: Voltage-dependent N-type calcium channel subunit alpha-1B (Homo sapiens) (UniProt Q00975); test: Inhibition of Calcium Channel N-Type at 10 µM in the Eurofins-Panlabs radioligand binding assay (Eurofins_assay_216000); conditions: Rattus norvegicus; Compound concentration 10.0 uM
[2] = biological target: T1, D(4) dopamine receptor (Homo sapiens) (UniProt P21917); test: Inhibition of Dopamine D4.2 at 10 µM in the Eurofins-Panlabs radioligand binding assay (Eurofins_assay_219900); parameters: ligand concentration 0.5 nM; conditions: Compound concentration 10.0 uM
T1 sequence (whole entry): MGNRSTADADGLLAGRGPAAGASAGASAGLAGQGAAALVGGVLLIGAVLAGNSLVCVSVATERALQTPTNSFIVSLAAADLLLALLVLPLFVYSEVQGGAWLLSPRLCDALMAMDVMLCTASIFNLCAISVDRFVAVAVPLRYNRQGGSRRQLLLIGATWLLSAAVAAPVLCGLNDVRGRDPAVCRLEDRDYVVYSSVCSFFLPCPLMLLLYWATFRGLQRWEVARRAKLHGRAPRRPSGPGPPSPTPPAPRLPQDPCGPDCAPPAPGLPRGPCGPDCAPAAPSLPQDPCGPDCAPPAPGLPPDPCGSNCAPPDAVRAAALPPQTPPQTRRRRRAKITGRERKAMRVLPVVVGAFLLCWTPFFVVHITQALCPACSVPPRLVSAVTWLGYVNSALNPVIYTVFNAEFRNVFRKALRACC

[3] = biological target: Glutamate receptor ionotropic, kainate (Rattus norvegicus) (UniProt P22756+Q01812+P42260+P42264+Q63273); test: Inhibition of Glutamate, Kainate at 10 µM in the Eurofins-Panlabs radioligand binding assay (Eurofins_assay_232700); conditions: Compound concentration 10.0 uM
[4] = species on record: Rattus norvegicus; test: Inhibition of Glutamate, NMDA, Phencyclidine at 10 µM in the Eurofins-Panlabs radioligand binding assay (Eurofins_assay_233000); format: protein-complex assay; conditions: Compound concentration 10.0 uM
[5] = species on record: Rattus norvegicus; test: Inhibition of Imidazoline I2, Central at 10 µM in the Eurofins-Panlabs radioligand binding assay (Eurofins_assay_241000); parameters: ligand concentration 2 nM; conditions: Compound concentration 10.0 uM
[6] = species on record: Mus musculus; test: Inhibition of Phorbol Ester at 10 µM in the Eurofins-Panlabs radioligand binding assay (Eurofins_assay_264500); parameters: ligand concentration 3 nM; conditions: Compound concentration 10.0 uM
[7] = species on record: Homo sapiens; test: Somatostatin sst2 Eurofins-Panlabs radioligand binding assay; parameters: ligand concentration 0.03 nM; conditions: Compound concentration 10.0 uM
[8] = species on record: Rattus norvegicus; test: Adrenergic α2, Non-selective Eurofins-Panlabs radioligand binding assay; format: protein assay; conditions: Compound concentration 10.0 uM
[9] = biological target: Type-2 angiotensin II receptor (Homo sapiens) (UniProt P50052); test: Angiotensin AT2 Eurofins-Panlabs radioligand binding assay; format: protein assay; conditions: Compound concentration 10.0 uM
[10] = species on record: Rattus norvegicus; test: Potassium Channel [SKCA] Eurofins-Panlabs radioligand binding assay; parameters: ligand concentration 0.005 nM; conditions: Compound concentration 10.0 uM
[11] = species on record: Homo sapiens; test: Chemokine CXCR1/2 (IL-8, Non-selective) Eurofins-Panlabs radioligand binding assay; conditions: Compound concentration 10.0 uM
[12] = biological target: T2, Muscarinic acetylcholine receptor M2 (Homo sapiens) (UniProt P08172); test: Muscarinic M2 Eurofins-Panlabs radioligand binding assay; conditions: Compound concentration 10.0 uM
T2 sequence (whole entry): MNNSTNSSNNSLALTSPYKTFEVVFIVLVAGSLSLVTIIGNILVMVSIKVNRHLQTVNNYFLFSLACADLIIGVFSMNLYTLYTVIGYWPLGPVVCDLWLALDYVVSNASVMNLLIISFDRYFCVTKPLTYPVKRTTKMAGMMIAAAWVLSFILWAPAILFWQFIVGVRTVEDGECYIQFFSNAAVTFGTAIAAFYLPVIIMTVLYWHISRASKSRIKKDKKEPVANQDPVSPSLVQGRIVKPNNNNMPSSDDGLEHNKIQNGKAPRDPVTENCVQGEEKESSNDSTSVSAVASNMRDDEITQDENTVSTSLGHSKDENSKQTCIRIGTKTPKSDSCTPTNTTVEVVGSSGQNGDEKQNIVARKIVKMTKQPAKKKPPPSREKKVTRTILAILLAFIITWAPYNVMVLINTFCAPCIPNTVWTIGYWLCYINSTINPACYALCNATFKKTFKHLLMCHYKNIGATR

[13] = biological target: 5-hydroxytryptamine receptor 1B (Homo sapiens) (UniProt P28222); conditions: Compound concentration 10.0 uM
[14] = biological target: 5-hydroxytryptamine receptor 1E (Homo sapiens) (UniProt P28566); conditions: Compound concentration 10.0 uM
[15] = biological target: D(1B) dopamine receptor (Homo sapiens) (UniProt P21918); conditions: Compound concentration 10.0 uM
[16] = biological target: T3, Sodium-dependent dopamine transporter (Homo sapiens, UniProt Q01959); conditions: Compound concentration 10.0 uM
[17] = biological target: Histamine H4 receptor (Homo sapiens) (UniProt Q9H3N8); conditions: Compound concentration 10.0 uM
[18] = biological target: T4, Muscarinic acetylcholine receptor M1 (Homo sapiens) (UniProt P11229); conditions: Compound concentration 10.0 uM
T4 sequence (whole entry): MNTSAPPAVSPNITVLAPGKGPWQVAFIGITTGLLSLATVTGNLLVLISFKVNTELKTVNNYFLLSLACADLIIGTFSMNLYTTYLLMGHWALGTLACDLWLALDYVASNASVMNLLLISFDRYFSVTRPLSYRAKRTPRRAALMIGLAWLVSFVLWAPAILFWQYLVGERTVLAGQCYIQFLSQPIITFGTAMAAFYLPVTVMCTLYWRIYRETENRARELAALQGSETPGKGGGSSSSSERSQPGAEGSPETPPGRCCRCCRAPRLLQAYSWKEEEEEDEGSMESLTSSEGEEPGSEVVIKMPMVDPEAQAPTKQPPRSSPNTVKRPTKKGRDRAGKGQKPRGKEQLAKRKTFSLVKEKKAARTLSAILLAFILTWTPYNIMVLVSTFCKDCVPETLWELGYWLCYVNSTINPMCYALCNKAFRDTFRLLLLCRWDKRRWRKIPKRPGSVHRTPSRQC

[19] = biological target: Muscarinic acetylcholine receptor M5 (Homo sapiens) (UniProt P08912); conditions: Compound concentration 10.0 uM
[20] = biological target: Adenosine receptor A2a (Homo sapiens) (UniProt P29274); conditions: Compound concentration 10.0 uM
[21] = biological target: Beta-2 adrenergic receptor (Homo sapiens, UniProt P07550); conditions: Compound concentration 10.0 uM
[22] = biological target: Endothelin receptor type B (Homo sapiens) (UniProt P24530); conditions: Compound concentration 10.0 uM
[23] = biological target: T3, Sodium-dependent dopamine transporter; conditions: Compound concentration 10.0 uM; remark: listed apart in the source
[24] = biological target: GABA-A receptor; anion channel (Rattus norvegicus) (UniProt O09028+P15431+P18506+P18508+P19969+P20236+P23574+P23576+P28471+P28473+P30191+P62813+P63079+P63138+Q91ZM7+Q9ES14); conditions: Compound concentration 10.0 uM

T3 sequence (Q01959 whole entry): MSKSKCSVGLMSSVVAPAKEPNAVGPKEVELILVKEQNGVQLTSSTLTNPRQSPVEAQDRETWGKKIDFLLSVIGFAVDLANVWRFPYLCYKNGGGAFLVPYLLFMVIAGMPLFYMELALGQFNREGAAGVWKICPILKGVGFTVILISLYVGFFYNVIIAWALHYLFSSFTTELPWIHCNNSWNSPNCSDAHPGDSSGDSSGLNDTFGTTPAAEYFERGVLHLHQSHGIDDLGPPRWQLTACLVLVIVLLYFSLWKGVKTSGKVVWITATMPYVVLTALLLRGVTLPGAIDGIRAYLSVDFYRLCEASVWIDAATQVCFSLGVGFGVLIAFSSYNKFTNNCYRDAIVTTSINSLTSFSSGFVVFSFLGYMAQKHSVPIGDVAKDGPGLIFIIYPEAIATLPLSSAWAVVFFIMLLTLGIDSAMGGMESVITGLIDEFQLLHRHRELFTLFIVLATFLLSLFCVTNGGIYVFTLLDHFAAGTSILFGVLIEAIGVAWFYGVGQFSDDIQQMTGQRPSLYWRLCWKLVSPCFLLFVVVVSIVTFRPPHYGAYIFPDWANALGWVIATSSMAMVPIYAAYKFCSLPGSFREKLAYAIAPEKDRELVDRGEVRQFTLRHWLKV
Sequence of Histamine H4 receptor (Homo sapiens) (Q9H3N8 whole entry): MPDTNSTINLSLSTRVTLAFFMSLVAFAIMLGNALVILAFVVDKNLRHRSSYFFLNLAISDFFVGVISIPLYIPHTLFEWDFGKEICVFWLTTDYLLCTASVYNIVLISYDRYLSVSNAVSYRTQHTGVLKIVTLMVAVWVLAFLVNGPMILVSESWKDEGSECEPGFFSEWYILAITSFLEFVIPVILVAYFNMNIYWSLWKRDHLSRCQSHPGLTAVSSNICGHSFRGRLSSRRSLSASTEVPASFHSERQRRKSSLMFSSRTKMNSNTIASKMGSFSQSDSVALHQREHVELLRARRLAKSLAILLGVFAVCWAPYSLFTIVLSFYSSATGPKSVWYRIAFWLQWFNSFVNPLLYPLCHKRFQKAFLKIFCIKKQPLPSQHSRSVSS
Sequence of D(1B) dopamine receptor (Homo sapiens) (P21918 whole entry): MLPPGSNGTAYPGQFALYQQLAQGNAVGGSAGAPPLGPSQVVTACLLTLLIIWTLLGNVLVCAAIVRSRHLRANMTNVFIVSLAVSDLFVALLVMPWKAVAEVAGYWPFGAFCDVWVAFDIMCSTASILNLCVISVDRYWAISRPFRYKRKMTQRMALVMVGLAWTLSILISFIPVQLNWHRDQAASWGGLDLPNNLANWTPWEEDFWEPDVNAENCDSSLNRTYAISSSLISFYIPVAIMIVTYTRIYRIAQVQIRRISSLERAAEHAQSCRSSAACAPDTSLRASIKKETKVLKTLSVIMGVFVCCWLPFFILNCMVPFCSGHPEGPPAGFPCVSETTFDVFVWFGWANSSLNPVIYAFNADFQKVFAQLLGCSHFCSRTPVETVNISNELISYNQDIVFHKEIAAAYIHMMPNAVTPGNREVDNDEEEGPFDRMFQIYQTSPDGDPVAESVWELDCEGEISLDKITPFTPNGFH
Sequence of Endothelin receptor type B (Homo sapiens) (P24530 whole entry): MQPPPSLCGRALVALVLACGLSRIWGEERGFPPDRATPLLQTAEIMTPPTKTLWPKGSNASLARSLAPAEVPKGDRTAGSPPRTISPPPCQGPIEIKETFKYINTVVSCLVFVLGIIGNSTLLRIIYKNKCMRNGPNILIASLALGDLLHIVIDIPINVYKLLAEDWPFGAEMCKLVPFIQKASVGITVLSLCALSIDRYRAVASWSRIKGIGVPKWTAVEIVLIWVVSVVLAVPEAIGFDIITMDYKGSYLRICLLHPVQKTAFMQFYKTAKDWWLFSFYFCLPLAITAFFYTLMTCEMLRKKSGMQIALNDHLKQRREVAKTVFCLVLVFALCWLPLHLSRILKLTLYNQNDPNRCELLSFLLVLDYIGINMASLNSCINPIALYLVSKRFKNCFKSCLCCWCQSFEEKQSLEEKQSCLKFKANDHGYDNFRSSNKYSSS
Sequence of Type-2 angiotensin II receptor (Homo sapiens) (P50052 whole entry): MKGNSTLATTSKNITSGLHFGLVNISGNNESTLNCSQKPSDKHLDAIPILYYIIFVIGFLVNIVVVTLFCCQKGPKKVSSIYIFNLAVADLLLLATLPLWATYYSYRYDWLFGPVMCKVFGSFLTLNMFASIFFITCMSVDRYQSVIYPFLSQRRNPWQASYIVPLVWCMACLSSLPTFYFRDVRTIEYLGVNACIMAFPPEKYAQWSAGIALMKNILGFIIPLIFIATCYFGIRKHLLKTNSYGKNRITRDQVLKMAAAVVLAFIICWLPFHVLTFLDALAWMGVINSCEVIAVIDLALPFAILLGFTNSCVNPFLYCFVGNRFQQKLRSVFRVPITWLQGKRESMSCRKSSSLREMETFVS
Sequence of 5-hydroxytryptamine receptor 1B (Homo sapiens) (P28222 whole entry): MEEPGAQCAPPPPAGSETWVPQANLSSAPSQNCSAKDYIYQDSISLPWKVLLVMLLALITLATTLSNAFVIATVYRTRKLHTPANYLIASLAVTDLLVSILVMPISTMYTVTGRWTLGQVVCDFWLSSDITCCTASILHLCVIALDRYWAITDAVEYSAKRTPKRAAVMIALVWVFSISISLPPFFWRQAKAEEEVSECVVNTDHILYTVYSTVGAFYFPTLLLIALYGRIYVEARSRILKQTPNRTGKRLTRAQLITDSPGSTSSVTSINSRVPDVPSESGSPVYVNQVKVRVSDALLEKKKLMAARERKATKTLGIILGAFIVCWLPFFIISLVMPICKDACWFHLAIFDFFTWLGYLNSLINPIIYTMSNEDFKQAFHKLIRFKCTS
Sequence of 5-hydroxytryptamine receptor 1E (Homo sapiens) (P28566 whole entry): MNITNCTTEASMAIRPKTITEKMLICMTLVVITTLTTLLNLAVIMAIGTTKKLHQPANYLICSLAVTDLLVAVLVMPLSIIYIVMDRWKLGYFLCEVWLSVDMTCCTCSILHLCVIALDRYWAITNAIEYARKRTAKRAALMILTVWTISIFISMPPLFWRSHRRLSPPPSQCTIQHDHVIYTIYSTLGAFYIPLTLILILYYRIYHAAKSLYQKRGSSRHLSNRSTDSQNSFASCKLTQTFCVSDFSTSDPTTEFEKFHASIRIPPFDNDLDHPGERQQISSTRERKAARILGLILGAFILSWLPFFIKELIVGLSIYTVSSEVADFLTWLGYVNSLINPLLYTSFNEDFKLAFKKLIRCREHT
Sequence of Muscarinic acetylcholine receptor M5 (Homo sapiens) (P08912 whole entry): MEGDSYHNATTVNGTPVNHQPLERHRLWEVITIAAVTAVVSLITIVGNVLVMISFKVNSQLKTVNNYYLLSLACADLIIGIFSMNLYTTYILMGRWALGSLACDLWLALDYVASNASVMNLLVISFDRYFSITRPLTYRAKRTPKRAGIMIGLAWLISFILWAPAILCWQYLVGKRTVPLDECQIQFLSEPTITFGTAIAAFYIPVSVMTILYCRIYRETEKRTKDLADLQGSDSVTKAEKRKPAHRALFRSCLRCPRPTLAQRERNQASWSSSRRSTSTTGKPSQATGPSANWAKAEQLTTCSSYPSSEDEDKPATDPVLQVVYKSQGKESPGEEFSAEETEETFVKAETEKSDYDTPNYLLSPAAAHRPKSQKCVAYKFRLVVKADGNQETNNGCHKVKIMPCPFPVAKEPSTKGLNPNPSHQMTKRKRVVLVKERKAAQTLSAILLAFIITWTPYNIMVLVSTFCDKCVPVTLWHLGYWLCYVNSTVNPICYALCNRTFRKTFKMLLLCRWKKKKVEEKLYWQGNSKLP
Sequence of Beta-2 adrenergic receptor (P07550 whole entry, looked up): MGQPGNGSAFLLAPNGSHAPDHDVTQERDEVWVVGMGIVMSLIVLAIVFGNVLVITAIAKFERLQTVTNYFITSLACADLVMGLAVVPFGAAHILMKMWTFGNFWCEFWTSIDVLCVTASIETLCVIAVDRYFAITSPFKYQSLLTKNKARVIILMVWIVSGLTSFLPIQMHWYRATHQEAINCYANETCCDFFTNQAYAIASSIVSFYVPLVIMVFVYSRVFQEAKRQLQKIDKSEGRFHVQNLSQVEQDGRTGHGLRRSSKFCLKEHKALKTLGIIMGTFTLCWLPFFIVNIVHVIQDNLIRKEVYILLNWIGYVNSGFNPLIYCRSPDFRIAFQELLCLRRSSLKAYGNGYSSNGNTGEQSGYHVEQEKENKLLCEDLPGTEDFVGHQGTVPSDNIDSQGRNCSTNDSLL
Sequence of Adenosine receptor A2a (Homo sapiens) (P29274 whole entry): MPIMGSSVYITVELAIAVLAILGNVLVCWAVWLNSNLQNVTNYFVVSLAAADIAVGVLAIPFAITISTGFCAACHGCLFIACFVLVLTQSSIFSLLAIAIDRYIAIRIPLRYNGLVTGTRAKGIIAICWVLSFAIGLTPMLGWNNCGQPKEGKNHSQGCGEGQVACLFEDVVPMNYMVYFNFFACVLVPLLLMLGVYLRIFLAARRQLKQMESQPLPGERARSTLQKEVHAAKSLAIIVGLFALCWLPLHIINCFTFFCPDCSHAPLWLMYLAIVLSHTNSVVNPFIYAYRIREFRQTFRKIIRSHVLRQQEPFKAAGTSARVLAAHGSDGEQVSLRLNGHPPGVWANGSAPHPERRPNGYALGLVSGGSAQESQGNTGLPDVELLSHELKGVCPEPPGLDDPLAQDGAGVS

SMILES | inhibition [1] [%] | inhibition [2] [%] | inhibition [3] [%] | inhibition [4] [%] | inhibition [5] [%] | inhibition [6] [%] | inhibition [7] [%] | inhibition [8] [%] | inhibition [9] [%] | inhibition [10] [%] | inhibition [11] [%] | inhibition [12] [%] | inhibition [13] [%] | inhibition [14] [%] | inhibition [15] [%] | inhibition [16] [%] | inhibition [17] [%] | inhibition [18] [%] | inhibition [19] [%] | inhibition [20] [%] | further results
Cc1cc(OC2CCS(=O)(=O)CC2)cc(C)c1-c1cccc(COc2ccc(C(=O)O)c(F)c2)c1 | -9 | 6 | 8 | 5 | 3 | -3 | -6 | 6 | 1 | 1 | 4 | -3 | 23.2 | -1.42 | 17.5 | 42.2 | 17.4 | -1.5 | -4.74 | 10 | inhibition [21]: -7%; inhibition [22]: 15%; inhibition [23]: -8%; inhibition [24]: 14%
Cc1cc(OC2CCS(=O)(=O)CC2)cc(C)c1-c1cccc(COc2ccc(CCC(=O)O)c(F)c2)c1 | -4 | 9 | -10 | -4 | -7 | -9 | 5 | 8 | -4 | -5 | 3 | 4 | 19.3 | 3.83 | 32.2 | 53.7 | 10.8 | 15.8 | 20.4 | 5 | inhibition [21]: 3%; inhibition [22]: 0%; inhibition [23]: 5%; inhibition [24]: 21%
